# From ChEMBL document CHEMBL1201862, “PubChem BioAssay data set” (2004)
#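 Growth conditions: 96-well plates. Treatment: test compound, 48 hours, 5 concentrations. Analysis: linear interpolation between bracketing concentrations; unreached endpoints set to highest concentration. GI50 = concentration required for 50% inhibition of growth.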 The source made the active and inactive calls. No stated cut-off is given here; in the data, active = GI50 up to about 1.1 µM and inactive = higher.
# Key:
# Assay in all cases: growth of human tumour cells (NCI), 48 h
# CAKI-1 = tested on: CAKI-1
# NCI/ADR-RES = tested on: NCI/ADR-RES
# SF-539 = tested on: SF-539
# EKVX = tested on: EKVX
# RPMI-8226 = tested on: RPMI-8226
# MOLT-4 = tested on: MOLT-4
# 786-0 = tested on: 786-0
# KM12 = tested on: KM12
# HCT-15 = tested on: HCT-15
# HT-29 = tested on: HT-29
# K562 = tested on: K562
# Malme-3M = tested on: Malme-3M
# HOP-62 = tested on: HOP-62
# UACC-62 = tested on: UACC-62
# SN12C = tested on: SN12C
# SNB-19 = tested on: SNB-19
# U-251 = tested on: U-251
# SK-MEL-28 = tested on: SK-MEL-28
# UACC-257 = tested on: UACC-257
# NCI-H226 = tested on: NCI-H226
SMILES,GI50 (CAKI-1),GI50 (NCI/ADR-RES),GI50 (SF-539),GI50 (EKVX),GI50 (RPMI-8226),GI50 (MOLT-4),GI50 (786-0),GI50 (KM12),GI50 (HCT-15),GI50 (HT-29),GI50 (K562),GI50 (Malme-3M),GI50 (HOP-62),GI50 (UACC-62),GI50 (SN12C),GI50 (SNB-19),GI50 (U-251),GI50 (SK-MEL-28),GI50 (UACC-257),GI50 (NCI-H226)
OC1(c2ccc(Cl)cc2)c2c(c3ccccc3c3ccccc23)C2=NCCN21 (configuration not stated),19.4 µM (inactive),11.5 µM (inactive),11.2 µM (inactive),13.6 µM (inactive),34.4 µM (inactive),10.8 µM (inactive),4.02 µM (inactive),16.7 µM (inactive),24.3 µM,14.6 µM (inactive),37.3 µM (inactive),16.5 µM (inactive),11.3 µM (inactive),15.9 µM (inactive),16.3 µM (inactive),13.6 µM (inactive),12.8 µM (inactive),18.3 µM (inactive),20.4 µM (inactive),
Nc1ncnc2c1ncn2C1CCC(CO)O1 (configuration not stated),> 100 µM (inactive),> 77.4 µM (inactive),> 100 µM (inactive),> 87.3 µM (inactive),> 100 µM (inactive),> 100 µM (inactive),,> 100 µM (inactive),> 100 µM,> 61.1 µM (inactive),> 100 µM (inactive),> 100 µM (inactive),> 100 µM (inactive),> 100 µM (inactive),> 100 µM (inactive),> 100 µM (inactive),> 100 µM (inactive),> 63.2 µM (inactive),> 100 µM (inactive),> 67.9 µM (inactive)
O=C(/C=C/c1ccc2c(c1)OCO2)CC(=O)/C=C/c1ccc2c(c1)OCO2,> 100 µM (inactive),69.3 µM (inactive),76.7 µM (inactive),64 µM (inactive),> 100 µM (inactive),> 100 µM (inactive),49.8 µM (inactive),3.56 µM (inactive),> 100 µM,> 100 µM (inactive),80.2 µM (inactive),> 100 µM (inactive),> 100 µM (inactive),> 100 µM (inactive),> 100 µM (inactive),92.7 µM (inactive),91.4 µM (inactive),> 10 µM (inactive),,> 100 µM (inactive)
Cc1c2c(n(CCc3ccc(Cl)cc3)c1C)NN=C(C#N)S2(=O)=O,,61.9 µM (inactive),> 100 µM (inactive),> 100 µM (inactive),> 100 µM (inactive),69.3 µM (inactive),> 100 µM (inactive),> 100 µM (inactive),> 100 µM,> 100 µM (inactive),84.7 µM (inactive),51.8 µM (inactive),> 100 µM (inactive),> 100 µM (inactive),> 100 µM (inactive),> 100 µM (inactive),> 100 µM (inactive),> 100 µM (inactive),> 100 µM (inactive),> 100 µM (inactive)
Cc1n[nH]c(=O)n1-c1cccnc1,> 100 µM (inactive),> 100 µM (inactive),> 100 µM (inactive),> 100 µM (inactive),> 100 µM (inactive),> 100 µM (inactive),> 100 µM (inactive),> 100 µM (inactive),> 100 µM,> 100 µM (inactive),> 100 µM (inactive),> 100 µM (inactive),> 100 µM (inactive),,> 100 µM (inactive),> 100 µM (inactive),> 100 µM (inactive),> 100 µM (inactive),> 100 µM (inactive),> 100 µM (inactive)
CC(=O)O[C@H]1CC[C@@]2(C)C(=CC[C@@H]3[C@@H]2CC[C@]2(C)Nc4c(cnn4S(C)(=O)=O)C[C@@H]32)C1,49.9 µM (inactive),> 100 µM (inactive),,,32.3 µM (inactive),20.1 µM (inactive),,52.8 µM (inactive),43.6 µM,21.9 µM (inactive),19.1 µM (inactive),> 100 µM (inactive),89.9 µM (inactive),47.3 µM (inactive),> 100 µM (inactive),> 100 µM (inactive),76.7 µM (inactive),> 100 µM (inactive),,35.2 µM (inactive)
Cc1cc(NS(=O)(=O)c2ccc(/N=[N+](\[O-])c3ccc(S(=O)(=O)Nc4cc(C)on4)cc3)cc2)no1,> 100 µM (inactive),> 100 µM (inactive),> 100 µM (inactive),> 100 µM (inactive),> 100 µM (inactive),> 100 µM (inactive),> 100 µM (inactive),,> 100 µM,> 100 µM (inactive),> 100 µM (inactive),> 100 µM (inactive),> 100 µM (inactive),> 100 µM (inactive),> 100 µM (inactive),> 100 µM (inactive),> 100 µM (inactive),,> 100 µM (inactive),> 100 µM (inactive)
COc1ccc2c(c1OC)C(=O)N1C2=Cc2c(cc3c(c2OC)OCO3)CC1N(C)C (configuration not stated),> 100 µM (inactive),26.4 µM (inactive),59.2 µM (inactive),65.8 µM (inactive),22.8 µM (inactive),34.5 µM (inactive),> 100 µM (inactive),34 µM (inactive),36.5 µM,,30.3 µM (inactive),51.4 µM (inactive),45.9 µM (inactive),27.5 µM (inactive),35.9 µM (inactive),> 100 µM (inactive),49.4 µM (inactive),46.1 µM (inactive),88.3 µM (inactive),40.4 µM (inactive)
CC1=[N+]([O-])C(C)(C)N(N=O)C1(C)C,> 10 µM (inactive),> 10 µM (inactive),,> 10 µM (inactive),> 10 µM (inactive),> 10 µM (inactive),> 10 µM (inactive),> 10 µM (inactive),> 10 µM,> 10 µM (inactive),> 10 µM (inactive),> 10 µM (inactive),> 10 µM (inactive),,> 10 µM (inactive),> 10 µM (inactive),> 10 µM (inactive),,> 10 µM (inactive),> 10 µM (inactive)
CCCCc1ccc(Nc2nc(N)c3ncn(COCCO)c3n2)cc1,38.7 µM (inactive),20.9 µM (inactive),28.2 µM (inactive),41.4 µM (inactive),30.6 µM (inactive),33 µM (inactive),25.5 µM (inactive),32.8 µM (inactive),19.3 µM,24.4 µM (inactive),7.01 µM (inactive),25.7 µM (inactive),17.1 µM (inactive),16.8 µM (inactive),33 µM (inactive),48.9 µM (inactive),22.1 µM (inactive),,21.3 µM (inactive),44.3 µM (inactive)
CSc1ccc2c(cc1=O)[C@@H](NC(C)=O)CCc1cc(O)c(O)c(O)c1-2,48.4 µM (inactive),19.9 µM (inactive),,31.9 µM (inactive),12.9 µM (inactive),13.2 µM (inactive),13.8 µM (inactive),18.3 µM (inactive),17.5 µM,9.82 µM (inactive),,57 µM (inactive),18 µM (inactive),36.1 µM (inactive),20.2 µM (inactive),29 µM (inactive),16.3 µM (inactive),> 100 µM (inactive),37.2 µM (inactive),15.4 µM (inactive)
